PMC10262914 (Bioorganic chemistry, 2022)
Values after ≈ are worked out from the molar mass of the structure shown. Read-outs that look alike come from different tables or passages of the source.

Columns and labels:
[1] = test system: Mycobacterium tuberculosis H37Rv; test: Alamar blue metabolic readout assay; assay type: cell-based; settings: for GAS MIC: M. tuberculosis H37Rv; for MIC: Mycobacterium tuberculosis, H37RV, read-out: GAS MIC
[2] = test system: VERO cells (kidney epithelial cells); test: Toxicity against VERO cells; assay type: cell-based
[3] = test system: Mycobacterium tuberculosis H37Rv; test: Alamar blue metabolic readout assay; assay type: cell-based; settings: for 7H12 MIC: M. tuberculosis H37Rv; for MIC: Mycobacterium tuberculosis, H37RV, read-out: 7H12 MIC
[4] = test system: Mycobacterium tuberculosis H37Rv; test: Low oxygen recovery assay; assay type: cell-based; settings: Mycobacterium tuberculosis, H37RV, read-out: LORA MIC
[5] = test system: Mycobacterium tuberculosis H37Rv; test: Alamar blue assay, MIC stated as range over GAS and 7H12 media; assay type: cell-based
in vitro [6] = settings: monkey, microsomes, pH 7.4
in vitro [7] = settings: human, microsomes, pH 7.4
[8] = mouse, microsomes
in vitro [9] = settings: mouse, microsomes, pH 7.4
[10] = microsomes
[11] = human, microsomes
[12] = Chlorocebus sabaeus, Vero, read-out: Vero IC50, toxicity against Vero cells

SMILES | GAS MIC ([1]; GAS media) | MIC [1] | IC50 [2, 12] | 7H12 MIC ([3]; 7H12 media) | MIC [3] | MIC [4] | fold less active than 30 ([1]; GAS media, MIC ratio versus compound 30 (printed as 4-OCF3 para)) | fold less active than 30 ([3]; 7H12 media, MIC ratio versus compound 30 (printed as 4-OCF3 para)) | fold less active than 37 ([3]; 7H12 media, MIC ratio versus para isomer 37) | MIC (range over both media) ([5]; H37Rv) | fold less active than 46 ([5]; versus 46 (3,5-difluoro)) | half-life at 2 μM (in vitro [6]) | half-life at 2 μM (in vitro [7]) | CLint [8] | half-life at 2 μM (in vitro [9]) | CLint [10] | CLint [11] | IC50 ([2]; read-out: Vero IC50, toxicity against Vero cells)
[2H]c1c(C([2H])([2H])[2H])c([2H])n2c(C(=O)NCc3cccc(Cl)c3)c(C)nc2c1[2H] [Compound 41, N-(3-Chlorobenzyl)-2-methyl-6-(methyl-d3)imidazo[1,2-a] pyridine-5,7,8-d3-3-carboxamide] | 0.0035 ± 0.0003 µM | 0.0035 µM (≈ 1.12 ng/mL) | > 10 µM | 0.0222 ± 0.0057 µM | 0.0222 µM (≈ 7.1 ng/mL) | 4.52 µM (≈ 1450 ng/mL) |  |  |  |  |  |  |  |  |  |  |  | 
[2H]c1c(C([2H])([2H])[2H])c([2H])n2c(C(=O)NCc3ccccc3Cl)c(C)nc2c1[2H] [Compound 42, N-(2-Chlorobenzyl)-2-methyl-6-(methyl-d3)imidazo[1,2-a] pyridine-5,7,8-d3-3-carboxamide] | 0.0134 ± 0.0022 µM | 0.0134 µM (≈ 4.29 ng/mL) | > 10 µM | 0.112 ± 0.0195 µM | 0.112 µM (≈ 35.8 ng/mL) | 8.49 µM (≈ 2720 ng/mL) |  |  |  |  |  |  |  |  |  |  |  | 
[2H]c1c(C([2H])([2H])[2H])c([2H])n2c(C(=O)NCc3cccc(OC(F)(F)F)c3)c(C)nc2c1[2H] [Compound 43, 2-Methyl-6-(methyl-d3)-N-(3-(trifluoromethoxy)benzyl)imidazo [1,2-a]pyridine-5,7,8-d3-3-carboxamide] |  | 0.0263 ± 0.0036 µM (≈ 9.71 ng/mL) | > 10 µM |  | 0.108 ± 0.0074 µM (≈ 39.9 ng/mL) | 4.92 µM (≈ 1820 ng/mL) | ~ 2.9 fold | > 28 fold |  |  |  |  |  |  |  |  |  | 
[2H]c1c(C([2H])([2H])[2H])c([2H])n2c(C(=O)NCc3cccc(OC)c3)c(C)nc2c1[2H] [Compound 45, N-(3-Methoxybenzyl)-2-methyl-6-(methyl-d3)imidazo[1,2-a] pyridine-5,7,8-d3-3-carboxamide] | 0.0205 ± 0.0004 µM | 0.0205 µM (≈ 6.47 ng/mL) |  | 0.105 ± 0.0191 µM | 0.105 µM (≈ 33.1 ng/mL) |  |  |  | 3 fold |  |  |  |  |  |  |  |  | 
[2H]c1c(C([2H])([2H])[2H])c([2H])n2c(C(=O)NCc3cc(F)cc(F)c3)c(C)nc2c1[2H] [Compound 46, N-(3,5-Difluorobenzyl)-2-methyl-6-(methyl-d3)imidazo[1,2-a] pyridine-5,7,8-d3-3-carboxamide] | 0.0072 ± 0.0016 µM | 0.0072 µM (≈ 2.31 ng/mL) | > 10 µM | 0.0124 ± 0.0045 µM | 0.0124 µM (≈ 3.98 ng/mL) | 6.91 µM (≈ 2220 ng/mL) |  |  |  | 0.007 to 0.012 µM |  |  |  |  |  |  |  | 
[2H]c1c(C([2H])([2H])[2H])c([2H])n2c(C(=O)NCc3cc(Cl)cc(Cl)c3)c(C)nc2c1[2H] [Compound 47, N-(3,5-Dichlorobenzyl)-2-methyl-6-(methyl-d3)imidazo[1,2-a] pyridine-5,7,8-d3-3-carboxamide] | 0.0188 ± 0.0028 µM | 0.0188 µM (≈ 6.66 ng/mL) | > 10 µM | 0.04 ± 0.013 µM | 0.04 µM (≈ 14.2 ng/mL) | 8.87 µM (≈ 3140 ng/mL) |  |  |  |  | > 2 fold |  |  |  |  |  |  | 
[2H]c1c(C)cn2c(C(=O)NCc3ccc(C(F)(F)F)cc3)c(C([2H])([2H])[2H])nc2c1[2H] [Compound 52, 6-Methyl-2-(methyl-d3)-N-(4-(trifluoromethyl)benzyl)imidazo [1,2-a]pyridine-7,8-d2-3-carboxamide] |  | 0.0074 ± 0.0028 µM (≈ 2.61 ng/mL) | > 50 µM |  | 0.0039 ± 0.0016 µM (≈ 1.37 ng/mL) | > 10 µM |  |  |  |  |  | 12 min | 46 min | 87 ml/min/g protein | 16 min | 116 ml/min/g protein | 30 ml/min/g protein | 
[2H]c1c(C([2H])([2H])[2H])cn2c(C(=O)NCc3ccc(C(F)(F)F)cc3)c(C([2H])([2H])[2H])nc2c1[2H] [Compound 55, 2,6-Bis(methyl-d3)-N-(4-(trifluoromethyl)benzyl)imidazo[1,2-a] pyridine-7,8-d2-3-carboxamide] |  | 0.0096 ± 0.0026 µM (≈ 3.41 ng/mL) | > 50 µM |  | 0.0049 ± 0.0013 µM (≈ 1.74 ng/mL) | > 10 µM |  |  |  |  |  | 14 min | 36 min | 42 ml/min/g protein | 33 min | 98 ml/min/g protein | 38 ml/min/g protein | 
Cc1ccc2nc(C)c(C(=O)NCc3ccc(C(F)(F)F)cc3)n2c1 [Compound 57, 2,6-Bis(Methyl-d3)-N-((4-(trifluoromethyl)phenyl)methyl-d2) imidazo[1,2-a]pyridine-7,8-d2-3-carboxamide] |  |  |  |  |  |  |  |  |  |  |  |  |  |  |  |  |  | > 50 µM
CCc1nc2ccc(Cl)cn2c1C(=O)NCc1ccc(N2CCC(c3ccc(OC(F)(F)F)cc3)CC2)cc1 [Compound Q203, Telacebec, reference compound] | 0.0009 ± 0.0004 µM | 0.0009 µM (≈ 0.501 ng/mL) |  | 0.0036 ± 0.0005 µM | 0.0036 µM (≈ 2.01 ng/mL) | > 5 µM |  |  |  |  |  |  |  |  |  |  |  | 
